Assay results from patent US20260206755A1, “COMPOUNDS AND COMPOSITIONS HAVING KNOCK-DOWN OR BLOOD FEED INHIBITION ACTIVITY AGAINST INSECT PESTS” (priority 2017, published 2026).
Where two headings read alike, the source gives them in different places.

Test system: Anopheles stephensi
Experiment: Anopheles stephensi treated well plate contact test: knockdown and mortality
Type: in vivo
Details: for mortality at 0.2 ppm / pest or weed control at 0.2 ppm / mortality at 2 ppm / pest or weed control at 2 ppm / mortality at 20 ppm / pest or weed control at 20 ppm / mortality at 200 ppm / pest or weed control at 200 ppm / mortality at 0.02 ppm / pest or weed control at 0.02 ppm: Anopheles stephensi; for pest or weed control at 0.2 ppm / pest or weed control at 2 ppm / pest or weed control at 20 ppm / pest or weed control at 200 ppm / pest or weed control at 0.02 ppm: read-out: Knock Down, without TFNA-AM; for pest or weed control at 0.02 ppm: test compound 0.02 ppm
Procedure: Examples Anopheles stephensi (Indian Malaria Mosquito)
The individual wells of twelve (12) well tissue culture plates were treated with 200 μl of an ethanol solution containing a test compound of Table 1 or Table 2 at a defined concentration and repeated with also 200 μl of an ethanol solution containing in addition 2 ppm TFNA-AM. Once the deposits were dry, five non-blood fed adult female Anopheles stephensi (between two to five day old) were added to each well, and sustained with a 10% sucrose solution in a cotton wool plug. Assessment of the knockdown after 1 hour, and mortality after 24 and 48 hours was carried out.
In case of multiple tests, the mean value is reported.

[1] = test compound 0.2 ppm plus 2 ppm TFNA-AM, after 24 hours
[2] = test compound 0.2 ppm plus 2 ppm TFNA-AM, after 48 hours
[3] = test compound 0.2 ppm plus 2 ppm TFNA-AM, knockdown after 1 hour
[4] = test compound 0.2 ppm, without TFNA-AM, knockdown after 1 hour
[5] = test compound 2 ppm plus 2 ppm TFNA-AM, after 24 hours
[6] = test compound 2 ppm plus 2 ppm TFNA-AM, after 48 hours
[7] = test compound 2 ppm plus 2 ppm TFNA-AM, knockdown after 1 hour
[8] = test compound 2 ppm, without TFNA-AM, knockdown after 1 hour
[9] = test compound 20 ppm plus 2 ppm TFNA-AM, after 24 hours
[10] = test compound 20 ppm plus 2 ppm TFNA-AM, after 48 hours
[11] = test compound 20 ppm plus 2 ppm TFNA-AM, knockdown after 1 hour
[12] = test compound 20 ppm, without TFNA-AM, knockdown after 1 hour
[13] = test compound 200 ppm plus 2 ppm TFNA-AM, after 24 hours
[14] = test compound 200 ppm plus 2 ppm TFNA-AM, after 48 hours
[15] = test compound 200 ppm plus 2 ppm TFNA-AM, knockdown after 1 hour
[16] = test compound 200 ppm, without TFNA-AM, knockdown after 1 hour, adult females
[17] = test compound 0.2 ppm, without TFNA-AM, after 24 hours, read-out: mortality % 24, without TFNA-AM
[18] = test compound 0.2 ppm, without TFNA-AM, after 48 hours, read-out: mortality % 48, without TFNA-AM
[19] = test compound 2 ppm, without TFNA-AM, after 24 hours, read-out: mortality % 24, without TFNA-AM
[20] = test compound 2 ppm, without TFNA-AM, after 48 hours, read-out: mortality % 48, without TFNA-AM
[21] = test compound 20 ppm, without TFNA-AM, after 24 hours, read-out: mortality % 24, without TFNA-AM
[22] = test compound 20 ppm, without TFNA-AM, after 48 hours, read-out: mortality % 48, without TFNA-AM
[23] = test compound 200 ppm, without TFNA-AM, after 24 hours, read-out: mortality % 24, without TFNA-AM
[24] = test compound 200 ppm, without TFNA-AM, after 48 hours, read-out: mortality % 48, without TFNA-AM
[25] = 24 h, read-out: mortality % 24, without TFNA-AM
[26] = 48 h, read-out: mortality % 48, without TFNA-AM
[27] = without TFNA-AM, knockdown after 1 hour
[28] = test compound 0.02 ppm plus 2 ppm TFNA-AM, after 24 hours
[29] = test compound 0.02 ppm plus 2 ppm TFNA-AM, knockdown after 1 hour
[30] = test compound 0.02 ppm plus 2 ppm TFNA-AM, after 48 hours

Row | Compound | mortality % 24, with TFNA-AM [1] | mortality % 48, with TFNA-AM [2] | Knock Down, with TFNA-AM [3] | mortality % 24, with TFNA-AM [5] | mortality % 48, with TFNA-AM [6] | Knock Down, with TFNA-AM [7] | mortality % 24, with TFNA-AM [9] | mortality % 48, with TFNA-AM [10] | Knock Down, with TFNA-AM [11] | mortality % 24, with TFNA-AM [13] | mortality % 48, with TFNA-AM [14] | Knock Down, with TFNA-AM [15] | mortality at 0.2 ppm [17] | mortality at 0.2 ppm [18] | pest or weed control at 0.2 ppm [4] | mortality at 2 ppm [19] | mortality at 2 ppm [20] | pest or weed control at 2 ppm [8] | mortality at 20 ppm [21] | pest or weed control at 20 ppm [12] | further results
1 | N#Cc1ccc(CC(=NNC(=O)Nc2ccc(OC(F)(F)F)cc2)c2cccc(C(F)(F)F)c2)cc1 (mixture of isomers) [Metaflumizone] | 40% | 60% | 100% | 100% | 100% | 100% | 100% | 100% | 100% | 100% | 100% | 100% | – | – | – | – | – | – | – | – | mortality % 24, without TFNA-AM (test compound 0.2 ppm, without TFNA-AM, after 24 hours): 0%; mortality % 48, without TFNA-AM (test compound 0.2 ppm, without TFNA-AM, after 48 hours): 0%; Knock Down, without TFNA-AM [4]: 0%; mortality % 24, without TFNA-AM (test compound 2 ppm, without TFNA-AM, after 24 hours): 0%; mortality % 48, without TFNA-AM (test compound 2 ppm, without TFNA-AM, after 48 hours): 0%; Knock Down, without TFNA-AM [8]: 0%; mortality % 24, without TFNA-AM (test compound 20 ppm, without TFNA-AM, after 24 hours): 0%; mortality % 48, without TFNA-AM (test compound 20 ppm, without TFNA-AM, after 48 hours): 0%; Knock Down, without TFNA-AM [12]: 0%; mortality % 24, without TFNA-AM (test compound 200 ppm, without TFNA-AM, after 24 hours): 0%; mortality % 48, without TFNA-AM (test compound 200 ppm, without TFNA-AM, after 48 hours): 80%; Knock Down, without TFNA-AM [16]: 0%
2 | CC(C)c1cc(Oc2ccccc2)cc(C(C)C)c1NC(=S)NC(C)(C)C [Diafenthiuron] | 60% | 0% | 100% | 100% | 60% | 100% | 100% | 80% | 100% | 100% | 100% | 100% | 0% | 20% | 60% | 0% | 20% | 100% | 0% | 100% | mortality at 20 ppm [22]: 0%; mortality at 200 ppm [23]: 100%; mortality at 200 ppm [24]: 100%; pest or weed control at 200 ppm [16]: 100%
3 | NC(=O)c1cnccc1C(F)(F)F [TFNA-AM, 4-(trifluoromethyl)pyridine-3-carboxamide] | – | – | – | – | – | – | – | – | – | – | – | – | – | – | – | – | – | – | – | – | mortality at 2 ppm (TFNA-AM 2 ppm alone, after 24 hours, read-out: mortality % 24, TFNA-AM alone): 18.3%; mortality at 2 ppm (TFNA-AM 2 ppm alone, after 48 hours, read-out: mortality % 48, TFNA-AM alone): 11.7%; Knock Down, TFNA-AM alone (TFNA-AM 2 ppm alone, knockdown after 1 hour): 75.5%
4 | CN/C(=N\[N+](=O)[O-])NCc1cnc(Cl)s1 [Clothianidin] | – | 0% | 100% | 100% | 100% | 100% | 100% | 100% | 100% | 100% | 100% | 100% | 0% | 0% | 0% | 0% | 0% | 0% | 0% | 0% | mortality at 20 ppm [22]: 20%; mortality at 200 ppm [23]: 0%; mortality at 200 ppm [24]: 20%; pest or weed control at 200 ppm [16]: 0%
5 | CNC(=O)Oc1cccc2c1OC(C)(C)O2 [Bendiocarb] | 100% | 100% | 100% | 100% | 100% | 100% | 100% | 100% | 100% | – | – | – | – | – | 20% | – | – | 100% | – | 100% | mortality at 0.02 ppm [25]: 0%; mortality at 0.2 ppm [25]: 60%; mortality at 2 ppm [25]: 100%; mortality at 20 ppm [25]: 100%; mortality at 0.02 ppm [26]: 0%; mortality at 0.2 ppm [26]: 60%; mortality at 2 ppm [26]: 100%; mortality at 20 ppm [26]: 100%; pest or weed control at 0.02 ppm [27]: 0%; mortality % 24, with TFNA-AM [28]: 20%; Knock Down, with TFNA-AM [29]: 100%
6 | COP(=S)(OC)Oc1ccc([N+](=O)[O-])c(C)c1 [Fenitrothion] | 80% | 100% | 100% | 100% | 100% | 100% | 100% | 100% | 100% | – | – | – | – | – | 0% | – | – | 0% | – | 0% | mortality at 0.02 ppm [25]: 0%; mortality at 0.2 ppm [25]: 20%; mortality at 2 ppm [25]: 100%; mortality at 20 ppm [25]: 100%; mortality at 0.02 ppm [26]: 0%; mortality at 0.2 ppm [26]: 100%; mortality at 2 ppm [26]: 100%; mortality at 20 ppm [26]: 100%; pest or weed control at 0.02 ppm [27]: 0%; mortality % 24, with TFNA-AM [28]: 40%; mortality % 48, with TFNA-AM [30]: 40%; Knock Down, with TFNA-AM [29]: 100%
7 | CC(C)N1C(=O)N(c2ccccc2)CS/C1=N\C(C)(C)C [Buprofezin] | 80% | 60% | 100% | 100% | 60% | 100% | 100% | 60% | 100% | 80% | 40% | 100% | 0% | 0% | 0% | 0% | 0% | 0% | 0% | 0% | mortality at 20 ppm [22]: 0%; mortality at 200 ppm [23]: 0%; mortality at 200 ppm [24]: 0%; pest or weed control at 200 ppm [16]: 0%
8 | CNC(=O)Oc1ccccc1OC(C)C [Propoxur] | 100% | 100% | 100% | 100% | 100% | 100% | 100% | 100% | 100% | – | – | – | – | – | 0% | – | – | 100% | – | 100% | mortality at 0.02 ppm [25]: 0%; mortality at 0.2 ppm [25]: 100%; mortality at 2 ppm [25]: 100%; mortality at 20 ppm [25]: 100%; mortality at 0.02 ppm [26]: 0%; mortality at 0.2 ppm [26]: 100%; mortality at 2 ppm [26]: 100%; mortality at 20 ppm [26]: 100%; pest or weed control at 0.02 ppm [27]: 0%; mortality % 24, with TFNA-AM [28]: 40%; mortality % 48, with TFNA-AM [30]: 40%; Knock Down, with TFNA-AM [29]: 100%
